The text below walks through data of PubChem BioAssay (NCI).

The test system of the experiment is MDA-MB-468 breast. Description: growth of human tumour cells (NCI), 48 h.

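Following 48 hours of exposure in 96-well plates, responses at five concentrations were used to interpolate endpoints linearly. Abbreviation: GI50, concentration required for 50% inhibition of growth. TGI marks complete inhibition of growth.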 A value given as a limit tells only on which side of the number the result lay.

As to `COc1cc(-c2cc(C(=O)N3CCN(C(=O)c4ccccc4NCc4cccs4)CC3)nc3cc(-c4ccccc4)nn23)cc(OC)c1OC`, the GI50 is 2.71 µM and the TGI amounted to 14 µM.

For the compound `COc1ccc(/C=N/C2=C(C#N)C(c3ccccc3)c3ccc4ccccc4c3O2)cc1` (stereo unspecified), the GI50 was 0.454 µM.

As for `O=C1COCCN1c1ccc(NCc2cn(Cc3ccc(F)cc3)c3ccccc23)cc1`, the GI50 is 0.0239 µM and the TGI stood at 0.0783 µM.

With `Nc1nc(-c2ccccc2Cl)cc(-c2ccc(Cl)cc2Cl)n1`, the GI50 was 2.18 µM and the TGI is 8.66 µM.

For the compound `Nc1ncnc2c1c(-c1ccc(Oc3ccccc3)cc1)nn2C[C@H]1SSC[C@H]1O`, the GI50 was 0.211 µM and the TGI was 0.627 µM.

As to `CCCCCCOc1ccc(/C=N/Nc2cc(C)nc3ccc(Br)cc23)cc1`, the GI50 was 1.7 µM and the TGI turned out to be 3.22 µM.

With `CCOc1ccc(NC2=C(Cl)C(=O)c3nc(C)ccc3C2=O)cc1`, the GI50 is 1.49 µM and the TGI was 2.92 µM.

On to `O=c1c(Br)ccc(Br)cc1Br`, for which the GI50 is 0.83 µM and the TGI stood at 2.62 µM.

As for `Clc1ccc2c(NCCCNCc3ccc4c(c3)OCO4)ccnc2c1`, the GI50 was 2.04 µM and the TGI amounted to 5.13 µM.

In the case of `CCOc1ccc(-n2cc(-c3ccc(N(C)C)cc3)[n+]3c2CCCCC3)cc1`, the GI50 is 0.042 µM and the TGI turned out to be 2.34 µM.

As for `COc1cc(-c2nc3cc(Cl)c(Cl)cc3[nH]2)ccc1OCC(=O)N=Nc1c(O)[nH]c2ccccc12`, the GI50 is 0.25 µM and the TGI was determined as 0.685 µM.

`COc1cc(Cl)c(C)cc1NC(=O)c1cc2ccccc2cc1O`: the GI50 was 2.76 µM and the TGI was determined as 9.74 µM.

For `O=C(/C=C/c1ccco1)c1cccc(Nc2nc(Nc3ccccc3)nc(Nc3ccccc3)n2)c1`, the GI50 was 2.8 µM and the TGI stood at 28.9 µM.

As for `O=c1c(-c2nc3ccccc3[nH]2)cc2ccccc2n1Cc1cn(Cc2ccc(F)cc2)nn1`, the GI50 is 0.0931 µM and the TGI stood at 2.78 µM.

For the compound `NC(CSC(c1ccccc1)(c1ccccc1)c1ccc(Br)cc1)C(=O)O` (stereo unspecified), the GI50 was 0.116 µM and the TGI is greater than 31.6 µM.

As to `O=C(Nc1ccc(-n2cc(-c3ccncc3)c(-c3ccc(Cl)c(O)c3)n2)cc1)c1ccc(Cl)c(C(F)(F)F)c1`, the GI50 was 1.84 µM and the TGI stood at 5.68 µM.

`COc1ccc(-c2nn(C(=O)c3cc(OC)c(OC)c(OC)c3)c3cc(N)ccc23)cc1`: the GI50 is less than 0.0141 µM and the TGI was 0.19 µM.

As for `COC(=O)/C=C/c1cc(OC)c2c(c1)[C@@H](C(=O)OC)[C@H](c1ccc(OC)c(OC)c1)O2`, the GI50 is 1.71 µM and the TGI was greater than 100 µM.

Consider `CCOC(=O)C1=CN(Cc2ccccc2)C2ON=C(c3ccc(Cl)cc3)C2C1` (stereo unspecified), for which the GI50 is 15.5 µM and the TGI was greater than 100 µM.

Consider `CCCCCCCCCCCC(=O)[O][Sn]([CH2]CCC)([CH2]CCC)[CH2]CCC`, for which the GI50 was 0.028 µM and the TGI is 0.0787 µM.

Regarding `COc1ccc(S(=O)(=O)Nc2c(/C=C\c3cc(OC)c(OC)c(OC)c3)ccc(OC)c2O)cc1OC`, the GI50 was 0.0755 µM and the TGI is 0.441 µM.

Take `COc1ccc2c(c1)cn1c3ccc(OC)cc3[nH]c(=O)c21`: the GI50 is 0.0635 µM and the TGI is 1.04 µM.

Turning to `c1ccc(Oc2cnc3ccccc3n2)cc1`, the GI50 is 46.4 µM and the TGI was greater than 100 µM.

For the compound `O=C1/C=C/[C@@H](O)[C@@H]2C[C@@H](O)C[C@H]2/C=C/CCCCO1`, the GI50 was 0.167 µM.

On to `N[C@@H](Cc1ccc(N(CCCl)CCCl)cc1)C(=O)O`, for which the GI50 is 3.84 µM and the TGI turned out to be 23.7 µM.

For `CN(Cc1cccc(Cl)c1)c1ccc(CO)c(Cl)c1`, the GI50 is 0.057 µM and the TGI turned out to be 0.217 µM.

For the compound `COc1cc(/C=C2\CCCC3=C2N=C2SC=NN2C3c2cc(OC)c(OC)c(OC)c2)cc(OC)c1OC` (stereo unspecified), the GI50 was 2.33 µM and the TGI was 7.52 µM.

As for `CC/C(=C(/c1ccc(Cl)cc1)c1ccc(OCCCN(C)C)cc1)c1ccc(OC)cc1`, the GI50 was 1.06 µM and the TGI is 2.26 µM.

`COc1cc(Nc2nccc(-c3cnn4ncccc34)n2)cc(OC)c1`: the GI50 is 0.0643 µM and the TGI was determined as 0.217 µM.

As to `Cc1nc(N(C)C)nc(-c2cccc(-c3ccn(CCN(C)C)n3)c2)c1C`, the GI50 was 12.1 µM and the TGI is greater than 20 µM.

As to `CCc1cc(Cc2cc(CC)cc(C(C)(C)C)c2O)c(O)c(C(C)(C)C)c1`, the GI50 is 3.54 µM and the TGI amounted to 13.2 µM.

Regarding `C=CCOc1ccc2c(c1)CC[C@@H]1[C@@H]2CC[C@]2(C)C(=O)/C(=N/O)C[C@@H]12`, the GI50 is 2.18 µM and the TGI was 10.6 µM.

Consider `N=C(N)c1ccc(-c2ccc(-c3ccccc3)o2)o1`, for which the GI50 was 1.64 µM and the TGI came out at 4.19 µM.

For the compound `C=C(C=O)[C@@H]1CC=C(C=O)CC1`, the GI50 was 2.8 µM and the TGI is greater than 100 µM.

On to `Nc1c(C(=O)Nc2cccc3ccccc23)sc2nc3c(cc12)CCCCCC3`, for which the GI50 was 0.675 µM and the TGI is 11.6 µM.

As to `COc1cccc(-c2nn(C)c3sc(C(=O)NCCN4CCN(c5ccccc5F)CC4)cc23)c1`, the GI50 is 7.81 µM and the TGI was greater than 100 µM.

For `OC(c1cc2c(Cl)cc(Cl)cc2c2cc(C(F)(F)F)ccc12)C1CCCCN1` (stereo unspecified), the GI50 was 1.71 µM and the TGI worked out at 3.22 µM.

As to `Nc1c(S(=O)(=O)O)cc2c(c1Cl)C(=O)c1ccccc1C2=O`, the GI50 is greater than 100 µM and the TGI is greater than 100 µM.

In the case of `Cn1cc(C2=C(c3cn(CCCN/C(N)=N\[N+](=O)[O-])c4ccccc34)C(=O)NC2=O)c2ccccc21`, the GI50 is 2.09 µM and the TGI is 9.74 µM.
